Earlier results, collected in publication PMC7187627 (Antimicrobial Agents and Chemotherapy, 2019).

Key:
[1] = design: method as in PMID 28584140; details: cited from earlier work
[2] = system: type 1 methionyl-tRNA synthetase (MetRS); design: method as in PMID 19258353, PMID 19251726; details: cited from earlier work

O=c1cc(NCCCN[C@@H]2CCOc3c(Br)cc(Br)cc32)[nH]c2ccsc12 [CRS3123]
share of oral dose metabolized into glucuronide conjugates detectable in urine [1]: a small fraction
systemic absorption following oral dosing ([1]; preclinical testing and SAD study 100 mg to 1,200 mg): low systemic absorption
safety and tolerability ([1]; single oral doses 100 mg to 1,200 mg): safe and well tolerated
inhibition of type 1 MetRS [2]: potently inhibits
